Measured values reported in patent US20080287515A1, “Topical compositions containing metronidazole” (priority 2007, published 2008).
Blank lines part the entries; values can stand above or below the compound they belong to.

Legend:
[1] = at 25 °C; cited from earlier work
[2] = Physical stability test of aqueous metronidazole compositions (crystal formation or precipitation); type: physicochemical; conditions: for Concentration required to obtain a stable aqueous solution of 1.0% metronidazole: as the only solubility enhancing agent
Description: The solubility enhancing effect of the combination of urea and hydroxyalkyl urea in increasing the solubility of metronidazole in the aqueous compositions is evaluated by physical stability of the prepared compositions.
Therefore, the formulations are subject to a physical stability test. The protocol for the stability test is as follows: metronidazole and the solubility enhancing agents are combined with water either at room temperature or elevated temperature while stirring until dissolved. The solutions are permitted to cool to room temperature. Customary auxiliaries and additives may be added to the aqueous solutions containing solubilized metronidazole and solubility enhancing agents. The solutions may be gelled by using the suitable gelling agents. The compositions both in gel or solution form are then packaged in clear glass vials and sealed. The vials are kept at room temperature for 24 hours and monitored for crystal formation or precipitation. After 24 hours, the vials are placed in a refrigerator maintained at a temperature of about 4° C. for 7 days. After 7 days, the vials are removed from the refrigerator. Evidence of crystal formation or precipitation in the compositions is examined.
(§1) Each formulation was prepared by combining urea and metronidazole in water (q.s 100%). The mixture was kept at a temperature of about 45° C. while stirring until dissolved. The solutions were permitted to cool to room temperature, packaged and sealed in glass vials. The stability tests described in Example 1 were performed and the test results were recorded.
as §1, with “combining N-2-hydroxyethyl” for “combining”, “45°C.” for “45° C.”
as §1, with “N-2-hydroxyethyl urea, urea,” for “urea”, “kept either at room temperature or” for “kept”, “recorded. […]” for “recorded.”

Concentration required to obtain a stable aqueous solution of 1.0% metronidazole [2]: about 10% | Concentration of urea needed to obtain a stable aqueous solution of 1.0% metronidazole ([2]; concentration of N-2-hydroxyethyl urea is 1.0%): ≥ 8.0% | N-2-hydroxyethyl urea functionally equivalent to 1% urea in inducing the solubility enhancing effect ([2]; from Examples 2 and 3): about 1.6%
Compound: NC(N)=O [urea]
Water solubility limit [1]: about 50 % by weight

Concentration required to obtain a stable aqueous solution of 1.0% metronidazole [2]: about 16% | Concentration of N-2-hydroxyethyl urea needed to obtain a stable aqueous solution of 1.0% metronidazole ([2]; concentration of urea is 1.0%): ≥ 9.0%
Compound: NC(=O)NCCO [N-2-hydroxyethyl urea]

Results from stability test ([2]; 1.0% N-2-hydroxyethyl urea, 7.0% urea, 1.0% metronidazole in water, 7 days at about 4 °C): Crystals | Results from stability test ([2]; 1.0% N-2-hydroxyethyl urea, 8.0% urea, 1.0% metronidazole in water, 7 days at about 4 °C): Clear | Results from stability test ([2]; 1.0% N-2-hydroxyethyl urea, 9.0% urea, 1.0% metronidazole in water, 7 days at about 4 °C): Clear | Results from stability test ([2]; 5.0% N-2-hydroxyethyl urea, 2.0% urea, 1.0% metronidazole in water, 7 days at about 4 °C): Clear | Results from stability test ([2]; 5.0% N-2-hydroxyethyl urea, 2.0% urea, 1.0% metronidazole in water, 7 days at about 4 °C, listed as metronidazole): stable | Results from stability test ([2]; 5.0% N-2-hydroxyethyl urea, 3.0% urea, 1.0% metronidazole in water, 7 days at about 4 °C): Clear | Results from stability test ([2]; 5.0% N-2-hydroxyethyl urea, 4.0% urea, 1.0% metronidazole in water, 7 days at about 4 °C): Clear | Results from stability test ([2]; 5.0% N-2-hydroxyethyl urea, 5.0% urea, 1.0% metronidazole in water, 7 days at about 4 °C): Clear | Results from stability test ([2]; 7% urea, 1.0% metronidazole in water, 24 h room temperature then 7 days at about 4 °C): Crystals formed | Results from stability test ([2]; 8.0% N-2-hydroxyethyl urea, 1.0% urea, 1.0% metronidazole in water, 7 days at about 4 °C): Crystals | Results from stability test ([2]; 8.0% N-2-hydroxyethyl urea, 8.0% urea, 1.2% metronidazole in water, 7 days at about 4 °C): Clear | Results from stability test ([2]; 8% urea, 1.0% metronidazole in water, 24 h room temperature then 7 days at about 4 °C): Crystals formed | Results from stability test ([2]; 9.0% N-2-hydroxyethyl urea, 1.0% urea, 1.0% metronidazole in water, 7 days at about 4 °C): Crystals | Results from stability test ([2]; 9% urea, 1.0% metronidazole in water, 24 h room temperature then 7 days at about 4 °C): Crystals formed | Results from stability test ([2]; 10.0% N-2-hydroxyethyl urea, 1.0% urea, 1.0% metronidazole in water, 7 days at about 4 °C): Clear | Results from stability test ([2]; 10% urea, 1.0% metronidazole in water, 24 h room temperature then 7 days at about 4 °C): Clear | Results from stability test ([2]; 13% N-2-hydroxyethyl urea, 1.0% metronidazole in water, 24 h room temperature then 7 days at about 4 °C): Crystals formed | Results from stability test ([2]; 14% N-2-hydroxyethyl urea, 1.0% metronidazole in water, 24 h room temperature then 7 days at about 4 °C): Crystals formed | Results from stability test ([2]; 15% N-2-hydroxyethyl urea, 1.0% metronidazole in water, 24 h room temperature then 7 days at about 4 °C): Crystals formed | Results from stability test ([2]; 16% N-2-hydroxyethyl urea, 1.0% metronidazole in water, 24 h room temperature then 7 days at about 4 °C): Clear
Compound: Cc1ncc([N+](=O)[O-])n1CCO [Metronidazole, 1-(2-hydroxyethyl)-2-methyl-5-nitroimidazole]
